The values that follow come from ChEMBL document CHEMBL4609995, “Rational design, synthesis and biological profiling of new KDM4C inhibitors” (Bioorg Med Chem, 2020).

Data set [1] is described as follows: Substrate activity at P-gp in MDCK2-MDR1 cells at 10 uM incubated for 60 mins in presence or absence of 2 uM P-gp inhibitor elacridar by LC-MS/MS analysis. It counts as ADME, cell-based, Canis lupus familiaris. The settings on record: dog, mdck-mdr1, 1 h.
A further data set is filed under the species Homo sapiens. The experiment in a line: Selectivity ratio, ratio of IC50 for KDM4A (unknown origin) to IC50 for KDM4C (unknown origin).
The test system of another data set is A549. The experiment in a line: Antiproliferative activity against human A549 cells assessed as reduction in cell growth measured after 72 hrs by Alamar blue assay. It counts as functional, cell-based. The settings on record: A549, 72 h. (In general: The colour change of resazurin is a common sign of viable cells or microbes.)
Data set [2] deals with T1, Lysine-specific demethylase 4C (Homo sapiens, UniProt Q9H3R0).
T1 sequence (Q9H3R0 whole entry): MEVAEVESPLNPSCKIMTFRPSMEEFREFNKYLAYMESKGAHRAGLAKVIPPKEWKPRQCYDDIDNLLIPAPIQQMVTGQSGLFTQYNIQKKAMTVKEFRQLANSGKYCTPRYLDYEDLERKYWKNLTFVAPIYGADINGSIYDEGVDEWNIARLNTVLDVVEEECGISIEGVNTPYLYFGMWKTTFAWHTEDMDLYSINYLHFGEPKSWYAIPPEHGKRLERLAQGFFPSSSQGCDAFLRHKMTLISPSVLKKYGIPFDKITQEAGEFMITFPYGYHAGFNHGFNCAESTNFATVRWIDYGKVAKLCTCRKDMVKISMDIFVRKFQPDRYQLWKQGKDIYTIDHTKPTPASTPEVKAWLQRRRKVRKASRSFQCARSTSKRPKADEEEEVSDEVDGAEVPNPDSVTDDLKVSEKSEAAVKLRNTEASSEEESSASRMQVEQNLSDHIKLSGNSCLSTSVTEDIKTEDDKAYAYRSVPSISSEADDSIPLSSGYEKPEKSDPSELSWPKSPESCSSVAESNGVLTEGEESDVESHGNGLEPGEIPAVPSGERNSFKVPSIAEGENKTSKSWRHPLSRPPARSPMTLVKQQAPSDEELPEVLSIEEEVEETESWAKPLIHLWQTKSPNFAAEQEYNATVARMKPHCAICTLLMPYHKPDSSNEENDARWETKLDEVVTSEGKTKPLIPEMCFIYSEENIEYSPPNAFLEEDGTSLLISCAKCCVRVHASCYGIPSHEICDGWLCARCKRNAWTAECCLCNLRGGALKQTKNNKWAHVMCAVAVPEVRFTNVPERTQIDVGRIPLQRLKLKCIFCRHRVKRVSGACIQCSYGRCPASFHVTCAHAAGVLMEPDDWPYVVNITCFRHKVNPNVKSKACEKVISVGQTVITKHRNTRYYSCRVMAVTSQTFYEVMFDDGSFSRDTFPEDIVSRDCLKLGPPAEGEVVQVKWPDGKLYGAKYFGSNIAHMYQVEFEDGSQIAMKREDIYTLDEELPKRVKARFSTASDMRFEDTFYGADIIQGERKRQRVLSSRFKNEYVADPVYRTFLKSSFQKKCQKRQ
The experiment in a line: Inhibition of KDM4C (unknown origin).

The test system of data set [3] is P-gp. Put plainly: Efflux ratio of permeability from basolateral to apical over apical to basolateral side in MDCK2-MDR1 cells MDCK2-MDR1 cells at 10 uM incubated for 60 mins in presence 2 uM P-gp inhibitor elacridar by LC-MS/MS analysis. It counts as ADME, cell-based, Canis lupus familiaris. To be noted: dog, MDCK-MDR1, with elacridar 2 uM.
Data set [4] deals with P-gp. The experiment in a line: Permeability across apical to basolateral side in MDCK2-MDR1 cells at 10 uM incubated for 60 mins in presence 2 uM P-gp inhibitor elacridar by LC-MS/MS analysis. It counts as ADME, cell-based, Canis lupus familiaris. To be noted: dog, MDCK-MDR1, with elacridar 2 uM; read-out: permeability.
Data set [5] is described as follows: Intrinsic clearance in mouse liver microsomes assessed per mg protein at 1 uM measured up to 60 mins in presence or absence of NADPH by LC-MS/MS analysis. It counts as ADME, Microsome. To be noted: liver microsomes, read-out: CLH. For orientation: Liver microsomes are vesicles of endoplasmic reticulum, rich in cytochrome P450 enzymes.
The target of data set [6] is T2, Lysine-specific demethylase 4A (Homo sapiens, UniProt O75164).
T2 sequence (O75164 whole entry): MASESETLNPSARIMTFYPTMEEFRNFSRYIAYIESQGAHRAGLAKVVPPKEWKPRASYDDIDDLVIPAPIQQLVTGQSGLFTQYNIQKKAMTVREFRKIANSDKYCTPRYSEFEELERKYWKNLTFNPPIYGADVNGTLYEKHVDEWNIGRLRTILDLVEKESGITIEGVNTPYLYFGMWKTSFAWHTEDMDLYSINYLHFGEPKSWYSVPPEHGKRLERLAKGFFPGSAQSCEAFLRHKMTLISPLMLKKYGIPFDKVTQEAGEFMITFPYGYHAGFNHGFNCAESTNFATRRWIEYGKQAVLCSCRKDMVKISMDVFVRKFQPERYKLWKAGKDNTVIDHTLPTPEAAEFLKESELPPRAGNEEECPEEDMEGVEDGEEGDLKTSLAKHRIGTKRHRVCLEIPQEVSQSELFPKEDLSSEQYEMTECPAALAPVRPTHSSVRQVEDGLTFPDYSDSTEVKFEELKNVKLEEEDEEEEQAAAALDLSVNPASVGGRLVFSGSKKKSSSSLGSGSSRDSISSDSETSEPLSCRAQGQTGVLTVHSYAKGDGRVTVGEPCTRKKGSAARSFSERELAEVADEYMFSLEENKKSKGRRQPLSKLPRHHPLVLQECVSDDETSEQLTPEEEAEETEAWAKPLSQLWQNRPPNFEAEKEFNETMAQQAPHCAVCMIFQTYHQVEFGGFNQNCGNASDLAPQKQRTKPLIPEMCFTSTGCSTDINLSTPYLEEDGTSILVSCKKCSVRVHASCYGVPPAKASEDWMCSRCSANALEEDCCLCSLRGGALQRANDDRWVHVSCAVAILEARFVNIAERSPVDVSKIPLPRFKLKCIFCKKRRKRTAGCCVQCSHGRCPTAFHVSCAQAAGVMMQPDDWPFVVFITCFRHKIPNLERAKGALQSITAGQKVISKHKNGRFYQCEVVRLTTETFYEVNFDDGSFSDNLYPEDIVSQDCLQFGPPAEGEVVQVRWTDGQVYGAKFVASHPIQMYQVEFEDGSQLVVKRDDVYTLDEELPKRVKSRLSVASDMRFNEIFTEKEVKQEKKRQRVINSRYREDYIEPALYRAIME
Put plainly: Inhibition of KDM4A (unknown origin).

The target in data set [7] is T1, Lysine-specific demethylase 4C. Put plainly: Inhibition of KDM4C (unknown origin) using methylated H3 peptide as substrate by chemiluminescence assay. To be noted: read-out: IC50.
The test system of a further data set is HepG2. Put plainly: Antiproliferative activity against human HepG2 cells assessed as reduction in cell growth measured after 24 hrs by MTS assay. It is filed as functional, cell-based. To be noted: HepG2, 24 h. A general note: Tetrazolium assays rely on reduction of a dye to a coloured formazan, in cell work by metabolically active cells.

In the case of `Cn1ncnc2c(=O)n(C)c(=O)nc1-2`, the Activity entry in data set [1] is given as “Not Active”. For the same compound, the Ratio IC50 in the data set listed under Homo sapiens amounted to 5. Besides, the 50% inhibitory concentration (IC50) (in general, the concentration needed to halve the response being measured) is 22 nM in the data set with A549; 500 nM in data set [2]; 2500 nM in [6]; 541 nM in [7]; 4500 nM in the data set on HepG2. For the same compound, the efflux ratio (in general, a quotient of directional permeabilities that is used to spot active efflux) at 1 h, 10 µM in the data set with P-gp [3] was less than 2. The Papp A→B at 1 h, 10 µM in the data set on P-gp [4] came to 16 ×10⁻⁶ cm/s. Also, the microsomal CLint at 1 µM in data set [5] is less than 12.5 µL/min/mg.
